# Results published in patent US8119633B2, “Substituted sulfonamide compounds” (Gruenenthal GmbH, priority 2007, dated 2012).
# Legend:
# [1] = molecular target: T1, human bradykinin receptor 1 (B1R) (Homo sapiens, UniProt P46663); test: Functional study on the bradykinin receptor 1 (B1R), human: FLIPR Ca2+ influx assay; assay type: cell-based; details: test substance 10 μM, CHO K1 cells transfected with human B1R, Lys-Des-Arg9-bradykinin at EC80, Ca2+ influx (Fluo-4, FLIPR); for inhibition at 10 µM: read-out: B1R antagonism, human [10 μM] % inhibition
# T1 construct: expressed in transfected cells; host or cells: CHO K1 cells
# T1 sequence (P46663 1-353): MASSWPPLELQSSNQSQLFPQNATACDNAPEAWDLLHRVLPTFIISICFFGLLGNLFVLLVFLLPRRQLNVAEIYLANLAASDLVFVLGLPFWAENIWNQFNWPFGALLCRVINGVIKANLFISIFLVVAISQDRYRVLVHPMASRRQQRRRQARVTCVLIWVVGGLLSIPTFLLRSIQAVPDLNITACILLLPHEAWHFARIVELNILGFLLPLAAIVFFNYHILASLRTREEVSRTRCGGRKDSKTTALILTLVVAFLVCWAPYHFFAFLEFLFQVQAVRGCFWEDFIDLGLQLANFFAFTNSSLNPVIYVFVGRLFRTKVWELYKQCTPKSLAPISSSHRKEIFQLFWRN
# How it was run: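 CHO K1 cells stably expressing human B1R were loaded with Fluo-4, and Ca2+ fluorescence was read on FLIPR (ex 488/em 540 nm). Compound was added first (10 μM for % activation against Lys-Des-Arg9-bradykinin ≥0.5 nM). After 10-20 min, Lys-Des-Arg9-bradykinin was added at EC80 for % inhibition; IC50 came from concentration series, n=2-3, N≥2.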
# [2] = molecular target: T2, bradykinin receptor 1 (B1R) of the rat (Rattus norvegicus, UniProt P97583); test: Functional study on the bradykinin receptor 1 (B1R), rat: FLIPR Ca2+ influx assay; assay type: cell-based; details: test substance 10 μM, CHO K1 cells transfected with rat B1R, Des-Arg9-bradykinin at EC80, Ca2+ influx (Fluo-4, FLIPR); for inhibition at 10 µM: read-out: B1R antagonism, rat [10 μM] % inhibition
# T2 construct: expressed in transfected cells; host or cells: CHO K1 cells
# T2 sequence (P97583 1-337): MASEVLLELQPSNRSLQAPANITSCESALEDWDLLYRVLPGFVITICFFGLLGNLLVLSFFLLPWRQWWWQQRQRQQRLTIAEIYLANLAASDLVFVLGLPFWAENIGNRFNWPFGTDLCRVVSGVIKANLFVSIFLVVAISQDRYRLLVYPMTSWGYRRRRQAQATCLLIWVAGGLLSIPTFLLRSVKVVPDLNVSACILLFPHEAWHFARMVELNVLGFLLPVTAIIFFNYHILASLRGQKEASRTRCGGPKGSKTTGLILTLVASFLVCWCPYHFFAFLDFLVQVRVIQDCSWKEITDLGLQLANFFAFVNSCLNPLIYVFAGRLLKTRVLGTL
# How it was run: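 CHO K1 cells stably expressing rat B1R, Fluo-4-loaded, read on FLIPR (ex 488/em 540 nm, peak fluorescence). Test substances added first (agonism vs 10 μM Des-Arg9-bradykinin), then after 10-20 min Des-Arg9-bradykinin at EC80; % inhibition and IC50 from concentration series, n=2-3, N≥2.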
# human μ-opiate receptor = molecular target: T3, human μ-opiate receptor (Homo sapiens, UniProt P35372); test: Affinity for the human μ-opiate receptor ([3H]-naloxone displacement, SPA); details: test substance 1 μmol/l, inhibition of specific [3H]-naloxone binding, CHO-K1 receptor membrane preparation; for inhibition at 1 µM: read-out: μ-Opioid receptor [1 μM] % inhibition
# T3 construct: purchased PerkinElmer Life Sciences, Zaventem, Belgium RB-HOM; host or cells: CHO-K1 cells (membrane preparation)
# How it was run: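 Membranes from CHO-K1 cells expressing human μ-opiate receptor were incubated 90 min at room temperature with 1 nmol/l [3H]-naloxone and WGA-SPA beads in 50 mmol/l Tris-HCl with 0.06% BSA; non-specific binding was defined with 100 μmol/l naloxone. Percent inhibition was measured at 1 μmol/l, IC50 was derived from concentration series, and Ki was obtained by Cheng-Prusoff.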
# T3 sequence (P35372 whole entry): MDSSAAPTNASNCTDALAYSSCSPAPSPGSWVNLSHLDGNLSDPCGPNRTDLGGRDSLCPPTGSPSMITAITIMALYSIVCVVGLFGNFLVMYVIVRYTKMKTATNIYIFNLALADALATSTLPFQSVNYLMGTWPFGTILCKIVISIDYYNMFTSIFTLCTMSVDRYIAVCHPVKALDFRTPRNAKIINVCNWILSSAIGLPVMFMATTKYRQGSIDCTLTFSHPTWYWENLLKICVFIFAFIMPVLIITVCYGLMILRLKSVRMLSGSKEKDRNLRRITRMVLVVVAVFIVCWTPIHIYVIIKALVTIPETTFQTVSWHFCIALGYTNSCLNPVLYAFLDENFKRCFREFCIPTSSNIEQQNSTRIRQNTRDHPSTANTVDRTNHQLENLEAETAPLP
Molecule,inhibition at 10 µM [1],inhibition at 10 µM [2],inhibition at 1 µM (human μ-opiate receptor),"B1R antagonism, human [10 μM] % inhibition [1]","B1R antagonism, rat [10 μM] % inhibition [2]",μ-Opioid receptor [1 μM] % inhibition (human μ-opiate receptor)
"O=C(CC1C(=O)Nc2ccccc2N1S(=O)(=O)c1ccc(Cl)c(Cl)c1)NCC1CCC(C(c2ccccc2)N2CCCC2)CC1 (stereo not drawn) [Example 67, 2-[1-(3,4-dichloro-benzenesulfonyl)-3-oxo-1,2,3,4-tetrahydro-quinoxalin-2-yl]-N-[4-(phenyl-pyrrolidin-1-yl-methyl)-cyclohexylmethyl]-acetamide]",104%,104%,64%,,,
"O=C(CC1C(=O)Nc2ccccc2N1S(=O)(=O)c1ccc(Cl)c(Cl)c1)NC1CCC(C(CCc2ccccc2)N2CCCCC2)CC1 (stereo not drawn) [Example 68, 2-[1-(3,4-dichloro-benzenesulfonyl)-3-oxo-1,2,3,4-tetrahydro-quinoxalin-2-yl]-N-[4-(3-phenyl-1-piperidin-1-yl-propyl)-cyclohexyl]-acetamide]",104%,37%,30%,,,
"CN(C)C(c1ccccc1)C1CCC(CNC(=O)CCCCN(C)S(=O)(=O)c2c(Cl)cc(Cl)cc2Cl)CC1 (stereo not drawn) [Example 7, N—((4-((Dimethylamino)(phenyl)methyl)cyclohexyl)methyl)-5-(2,4,6-trichloro-N -methylphenylsulfonamido)pentanamide]",102%,59%,96%,,,
"O=C(CC1CCCN1S(=O)(=O)c1ccc(Cl)c(Cl)c1)NCC1CCC(C(CCc2ccccc2)N2CCCC2)CC1 (stereo not drawn) [Example 75, 2-[1-(3,4-dichloro-benzenesulfonyl)-pyrrolidin-2-yl]-N-[4-(3-phenyl-1-pyrrolidin-1-yl-propyl)-cyclohexylmethyl]-acetamide]",91.7%,2%,65%,,,
"CN1CCN(C(c2ccccc2)C2CCC(NC(=O)CC3C(=O)Nc4ccccc4N3S(=O)(=O)c3ccc(Cl)c(Cl)c3)CC2)CC1 (stereo not drawn) [Example 70, 2-[1-(3,4-dichloro-benzenesulfonyl)-3-oxo-1,2,3,4-tetrahydro-quinoxalin-2-yl]-N-{4-[(4-methyl-piperazin-1-yl)-phenyl-methyl]-cyclohexyl}-acetamide]",104%,98%,11%,,,
"O=C(CC1C(=O)NCCN1S(=O)(=O)c1ccc(Cl)cc1Cl)NC1CCC(C(CCc2ccccc2)N2CCOCC2)CC1 (stereo not drawn) [Example 60, 2-[1-(2,4-dichloro-benzenesulfonyl)-3-oxo-piperazin-2-yl]-N-[4-(1-morpholin-4-yl-3-phenyl-propyl)-cyclohexyl]-acetamide]",104%,8%,54%,,,
"O=C(CC1C(=O)NCCN1S(=O)(=O)c1ccc(Cl)cc1Cl)NCC1CCC(C(c2ccccc2)N2CCCC2)CC1 (stereo not drawn) [Example 58, 2-[1-(2,4-dichloro-benzenesulfonyl)-3-oxo-piperazin-2-yl]-N-[4-(phenyl-pyrrolidin-1-yl-methyl)-cyclohexylmethyl]-acetamide]",104%,11%,70%,,,
"O=C(CC1C(=O)NCCN1S(=O)(=O)c1ccc(Cl)cc1Cl)NC1CCC(C(CCc2ccccc2)N2CCCCC2)CC1 (stereo not drawn) [Example 59, 2-[1-(2,4-dichloro-benzenesulfonyl)-3-oxo-piperazin-2-yl]-N-[4-(3-phenyl-1-piperidin-1-yl-propyl)-cyclohexyl]-acetamide]",104%,27%,61%,,,
"O=C1Nc2ccccc2N(S(=O)(=O)c2ccc(Cl)c(Cl)c2)C1CC(=O)N1CCC(C(c2ccccc2)N2CCOCC2)CC1 (stereo not drawn) [Example 71, 4-(3,4-dichloro-benzenesulfonyl)-3-{2-[4-(morpholin-4-yl-phenyl-methyl)piperidin-1-yl]-2-oxo-ethyl}-3,4-dihydro-1H-quinoxalin-2-one]",104%,32%,12%,,,
"4-(Dimethylaminophenylmethyl)piperidin-1-carboxylic acid {3-[(4-methoxy-2,3,6-trimethylbenzenesulfonyl)methylamino]propyl}amide [Example 4]",,,,54.8%,95%,100%
"O=C(CC1CCCCN1S(=O)(=O)c1ccc(Cl)c(Cl)c1)N1CCC(C(c2ccccc2)N2CCOCC2)CC1 (stereo not drawn) [Example 89, 2-[1-(3,4-dichloro-benzenesulfonyl)-piperidin-2-yl]-1-[4-(morpholin-4-yl-phenylmethyl)-piperidin-1-yl]-ethanone]",16.4%,26%,8.5%,,,
"O=C(CC1CCCCN1S(=O)(=O)c1ccc(Cl)c(Cl)c1)NC1CCC(C(CCc2ccccc2)N2CCCCC2)CC1 (stereo not drawn) [Example 86, 2-[1-(3,4-dichloro-benzenesulfonyl)-piperidin-2-yl]-N-[4-(3-phenyl-1-piperidin-1-yl-propyl)-cyclohexyl]-acetamide]",101%,30%,54%,,,
"O=C1NCCN(S(=O)(=O)c2ccc(Cl)cc2Cl)C1CC(=O)N1CCCCC1C(Cc1ccccc1)N1CCOCC1 (stereo not drawn) [Example 63, 4-(2,4-dichlorophenylsulfonyl)-3-(2-(2-(1-morpholino-2-phenylethyl)piperidin-1-yl)-2-oxoethyl)piperazin-2-one]",28.6%,-3%,47%,,,
"O=C(CC1C(=O)Nc2ccccc2N1S(=O)(=O)c1ccc(Cl)c(Cl)c1)NC1CCC(C(CCc2ccccc2)N2CCOCC2)CC1 (stereo not drawn) [Example 69, 2-[1-(3,4-dichloro-benzenesulfonyl)-3-oxo-1,2,3,4-tetrahydro-quinoxalin-2-yl]-N-[4-(1-morpholin-4-yl-3-phenyl-propyl)-cyclohexyl]-acetamide]",105%,19%,7%,,,
"O=C(CC1CCCCN1S(=O)(=O)c1ccc(Cl)c(Cl)c1)NC1CCC(C(CCc2ccccc2)N2CCOCC2)CC1 (stereo not drawn) [Example 87, 2-[1-(3,4-dichloro-benzenesulfonyl)-piperidin-2-yl]-N-[4-(1-morpholin-4-yl-3-phenyl-propyl)-cyclohexyl]-acetamide]",96.8%,25%,38%,,,
"O=C(CC1CCCCN1S(=O)(=O)c1ccc(Cl)c(Cl)c1)N1CCC(C(Cc2ccccc2)N2CCOCC2)CC1 (stereo not drawn) [Example 90, 2-(1-(3,4-dichlorophenylsulfonyl)piperidin-2-yl)-1-(4-(1-morpholino-2-phenylethyl)piperidin-1-yl)ethanone]",14.4%,17%,12%,,,
"O=C(CC1CCCN1S(=O)(=O)c1ccc(Cl)c(Cl)c1)NCC1CCC(C(c2ccccc2)N2CCOCC2)CC1 (stereo not drawn) [Example 73, 2-[1-(3,4-dichloro-benzenesulfonyl)-pyrrolidin-2-yl]-N-[4-(morpholin-4-yl-phenyl-methyl)-cyclohexylmethyl]-acetamide]",76.3%,36%,17%,,,
"CN1CCN(C(Cc2ccccc2)C2CCN(C(=O)CC3CCCCN3S(=O)(=O)c3cccc(C(F)(F)F)c3)CC2)CC1 (stereo not drawn) [Example 111, 1-(4-(1-(4-methylpiperazin-1-yl)-2-phenylethyl)piperidin-1-yl)-2-(1-(3-(trifluoromethyl)phenylsulfonyl)piperidin-2-yl)ethanone]",94%,61%,-2%,,,
